In patent publication US20210269434A1, “TRICYCLIC COMPOUNDS AS INHIBITORS OF KRAS” (Incyte Corporation, priority 2020, published 2021):

Assays:
KRAS G12C = KRAS G12C (Homo sapiens, UniProt P01116, G12C); experiment: GDP-GTP exchange assay (KRAS_G12C exchange); type: biochemical; details: bodipy-GDP loaded KRAS G12C 2.5 nM, SOS1 150 nM, GppNHp; 2 hours pre-incubation, 2 hours reaction; read-out: G12C_exchange
Method: Example A. GDP-GTP Exchange Assay
The inhibitor potency of the exemplified compounds was determined in a fluorescence based guanine nucleotide exchange assay, which measures the exchange of bodipy-GDP (fluorescently labeled GDP) for GppNHp (Non-hydrolyzable GTP analog) to generate the active state of KRAS in the presence of SOS1 (guanine nucleotide exchange factor). Inhibitors were serially diluted in DMSO and a volume of 0.1 μL was transferred to the wells of a black low volume 384-well plate. 5 μL/well volume of bodipy-loaded KRAS G12C diluted to 5 nM in assay buffer (25 mM Hepes pH 7.5, 50 mM NaCl, 10 mM MgCl2 and 0.01% Brij-35) was added to the plate and pre-incubated with inhibitor for 2 hours at ambient temperature. Appropriate controls (enzyme with no inhibitor or with a G12C inhibitor (AMG-510)) were included on the plate. The exchange was initiated by the addition of a 5 μL/well volume containing 1 mM GppNHp and 300 nM SOS1 in assay buffer. The 10 μL/well reaction concentration of the bodipy-loaded KRAS G12C, GppNHp, and SOS1 were 2.5 nM, 500 uM, and 150 nM, respectively. The reaction plates were incubated at ambient temperature for 2 hours, a time estimated for complete GDP-GTP exchange in the absence of inhibitor. For the KRAS G12D and G12V mutants, similar guanine nucleotide exchange assays were used with 2.5 nM as final concentration for the bodipy loaded KRAS proteins and with 4 hours and 3 hours incubation after adding GppNHp-SOS1 mixture for G12D and G12V respectively. A cyclic peptide described to selectively bind G12D mutant (Sakamoto et al., BBRC 484.3 (2017), 605-611) or internal compounds with confirmed binding were used as positive controls in the assay plates. Fluorescence intensities were measured on a PheraStar plate reader instrument (BMG Labtech) with excitation at 485 nm and emission at 520 nm.
Either GraphPad prism or XLfit was used to analyze the data. The IC50 values were derived by fitting the data to a four parameter logistic equation producing a sigmoidal dose-response curve with a variable Hill coefficient. Prism equation: Y=Bottom+(Top−Bottom)/(1+10^((Log lC50−X)*Hill slope)); XLfit equation: Y=(A+((B−A)/(1+((X/C)^D)))) where X is the logarithm of inhibitor concentration and Y is the response.

[1] = system: MIA PaCa-2 (KRAS G12C) cells; experiment: Cellular pERK HTRF assay (KRAS_G12C pERK); type: cell-based, human; details: Homo sapiens, MIA PaCa-2, 4 hours incubation, read-out: G12C_pERK
Method: Example C: Cellular pERK HTRF Assay
MIA PaCa-2 (KRAS G12C; ATCC® CRL-1420), A427 (KRAS G12D; ATCC® HTB53), HPAF-II (KRAS G12D; ATCC® CRL-1997) and NCI-H838 (KRAS WT; ATCC® CRL-5844) cells are purchased from ATCC and maintained in RPMI 1640 media supplemented with 10% FBS (Gibco/Life Technologies). The cells are plated at 5000 cells per well (8 uL) into Greiner 384-well low volume, flat-bottom, tissue culture treated white plates and incubated overnight at 37° C., 5% CO2. The next morning, test compound stock solutions are diluted in media at 3× the final concentration, and 4 uL are added to the cells. The plate is mixed by gentle rotation for 30 seconds (250 rpm) at room temperature. The cells are incubated with the KRAS G12C and G12D compounds for 4 hours or 2 hours respectively at 37° C., 5% CO2.
4 uL of 4× lysis buffer with blocking reagent (1:25) (Cisbio) are added to each well and plates are rotated gently (300 rpm) for 30 minutes at room temperature. 4 uL per well of Cisbio anti Phospho-ERK 1/2 d2 is mixed with anti Phospho-ERK 1/2 Cryptate (1:1) are added to each well, mixed by rotation and incubated overnight in the dark at room temperature. Plates are read on the Pherastar plate reader at 665 nm and 620 nm wavelengths. IC50 determination is performed by fitting the curve of inhibitor percent inhibition versus the log of the inhibitor concentration using the GraphPad Prism 7 software.

KRAS G12C, sequence (P01116 1-188 isoform P01116-2 G12C): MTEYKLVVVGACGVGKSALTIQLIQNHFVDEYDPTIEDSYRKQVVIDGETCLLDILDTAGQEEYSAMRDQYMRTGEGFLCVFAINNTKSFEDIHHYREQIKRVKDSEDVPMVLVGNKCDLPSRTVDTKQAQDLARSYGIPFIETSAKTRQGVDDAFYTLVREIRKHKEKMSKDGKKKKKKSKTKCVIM

COC/C=C/C(=O)N1CC[C@H](n2nnc3c(OC[C@@H]4CCCN4C)nc4c(F)c(-c5c(C)c(Cl)cc6[nH]ncc56)c(Cl)cc4c32)C[C@H]1CC#N (single isomer, unassigned) [Example 191a]
IC50 (KRAS G12C): ≤ 100 nM
IC50 [1]: ≤ 100 nM

C=CC(=O)N1CC[C@H](n2nnc3c(N4CC(C)(N(C)C)C4)nc4c(F)c(-c5c(C)c(Cl)cc6[nH]ncc56)c(C)cc4c32)C[C@H]1CC#N (single isomer, unassigned) [Example 193a]
IC50 (KRAS G12C): ≤ 100 nM
IC50 [1]: ≤ 100 nM

CC#CC(=O)N1CC[C@H](n2nnc3c(N4CC(C)(N(C)C)C4)nc4c(F)c(-c5c(C)c(Cl)cc6[nH]ncc56)c(C)cc4c32)C[C@H]1CC#N (single isomer, unassigned) [Example 194a]
IC50 (KRAS G12C): ≤ 100 nM
IC50 [1]: ≤ 100 nM

C=CC(=O)N1CC[C@H](n2nnc3c(N4CC(C)(N(C)C)C4)nc4c(F)c(-c5c(C)c(C)cc6[nH]ncc56)c(C)cc4c32)C[C@H]1CC#N (single isomer, unassigned) [Example 198a]
IC50 (KRAS G12C): ≤ 100 nM
IC50 [1]: ≤ 100 nM

C=CC(=O)N1CC[C@H](n2nnc3c(N4CC(C)(N(C)C)C4)nc4c(F)c(-c5c(C)ccc6[nH]ncc56)c(C)cc4c32)C[C@H]1CC#N (single isomer, unassigned) [Example 200a]
IC50 (KRAS G12C): ≤ 100 nM
IC50 [1]: ≤ 100 nM

CC#CC(=O)N1CC[C@H](n2nnc3c(OC[C@@H]4CCCN4C)nc4c(F)c(-c5cccnc5C(F)(F)F)c(C)cc4c32)C[C@H]1CC#N (single isomer, unassigned) [Example 205a]
IC50 (KRAS G12C): ≤ 100 nM
IC50 [1]: ≤ 100 nM

C=CC(=O)N1CCC(n2cnc3c(N4CC(C)(N(C)C)C4)nc4c(F)c(-c5cccc6cccc(Cl)c56)c(Cl)cc4c32)C[C@H]1CC#N (single isomer, unassigned) [Example 212a]
IC50 (KRAS G12C): ≤ 100 nM
IC50 [1]: ≤ 100 nM

CC#CC(=O)N1CCC(n2cnc3c(N4CC(C)(N(C)C)C4)nc4c(F)c(-c5cccc6cccc(Cl)c56)c(Cl)cc4c32)C[C@H]1CC#N (single isomer, unassigned) [Example 213b]
IC50 (KRAS G12C): ≤ 100 nM
IC50 [1]: ≤ 100 nM

C=CC(=O)N1CCC(n2cnc3c(N4CC(N(C)CC)C4)nc4c(F)c(-c5cccc6cccc(Cl)c56)c(Cl)cc4c32)C[C@H]1CC#N (single isomer, unassigned) [Example 214b]
IC50 (KRAS G12C): ≤ 100 nM
IC50 [1]: ≤ 100 nM

C=CC(=O)N1CCC(n2cnc3c(OC[C@@H]4CCCN4C)nc4c(F)c(-c5cccc6cccc(Cl)c56)c(Cl)cc4c32)C[C@H]1CC#N (single isomer, unassigned) [Example 215b]
IC50 (KRAS G12C): ≤ 100 nM
IC50 [1]: ≤ 100 nM

C=CC(=O)N1CCC(n2nnc3c(N4CC(C)(N(C)C)C4)nc4c(F)c(-c5cccc6cccc(Cl)c56)c(Cl)cc4c32)C[C@H]1CC#N (single isomer, unassigned) [Example 216a]
IC50 (KRAS G12C): ≤ 100 nM
IC50 [1]: ≤ 100 nM

CC#CC(=O)N1CCC(n2nnc3c(N4CC(C)(N(C)C)C4)nc4c(F)c(-c5cccc6cccc(Cl)c56)c(Cl)cc4c32)C[C@H]1CC#N (single isomer, unassigned) [Example 218a]
IC50 (KRAS G12C): ≤ 100 nM
IC50 [1]: ≤ 100 nM

C=CC(=O)N1CCC(n2nnc3c(N4CC(N(C)CC)C4)nc4c(F)c(-c5cccc6cccc(Cl)c56)c(Cl)cc4c32)C[C@H]1CC#N (single isomer, unassigned) [Example 219a]
IC50 (KRAS G12C): ≤ 100 nM
IC50 [1]: ≤ 100 nM

C=CC(=O)N1CCC(n2nnc3c(N4CC(C)(N(C)C)C4)nc4c(F)c(-c5cccc6cccc(C#N)c56)c(Cl)cc4c32)C[C@H]1CC#N (single isomer, unassigned) [Example 220a]
IC50 (KRAS G12C): ≤ 100 nM
IC50 [1]: ≤ 100 nM

C=CC(=O)N1CCC(n2cnc3c(N4CC(C)(N(C)C)C4)nc4c(F)c(-c5cccc6cccc(Cl)c56)c(C)cc4c32)C[C@H]1CC#N (single isomer, unassigned) [Example 221a]
IC50 (KRAS G12C): ≤ 100 nM
IC50 [1]: ≤ 100 nM

C=CC(=O)N1CCC(n2cnc3c(N4CC(N(C)CC)C4)nc4c(F)c(-c5cccc6cccc(Cl)c56)c(C)cc4c32)C[C@H]1CC#N (single isomer, unassigned) [Example 223a]
IC50 (KRAS G12C): ≤ 100 nM
IC50 [1]: ≤ 100 nM

CC#CC(=O)N1CCC(n2cnc3c(N4CC(N(C)CC)C4)nc4c(F)c(-c5cccc6cccc(Cl)c56)c(C)cc4c32)C[C@H]1CC#N (single isomer, unassigned) [Example 224a]
IC50 (KRAS G12C): ≤ 100 nM
IC50 [1]: ≤ 100 nM

CN(C)C/C=C/C(=O)N1CC[C@H](n2cnc3c(N4CC(N(C)C)C4)nc4c(F)c(-c5ccc(F)c6cccnc56)c(C(F)(F)F)cc4c32)C[C@H]1CC#N (single isomer, unassigned) [Example 230a]
IC50 (KRAS G12C): ≤ 100 nM
IC50 [1]: ≤ 100 nM

CC#CC(=O)N1CC[C@H](n2nnc3c(N4CC(N(C)C)C4)nc4c(F)c(-c5c(C)c(Cl)cc6[nH]ncc56)c(CCC#N)cc4c32)C[C@H]1CC#N (single isomer, unassigned) [Example 231a]
IC50 (KRAS G12C): ≤ 100 nM
IC50 [1]: ≤ 100 nM

C=CC(=O)N1CC[C@H](n2nnc3c(N4CC(C)(N(C)C)C4)nc4c(F)c(-c5ccc(F)c6cccnc56)c(C(F)(F)F)cc4c32)C[C@H]1CC#N (single isomer, unassigned) [Example 233a]
IC50 (KRAS G12C): ≤ 100 nM
IC50 [1]: ≤ 100 nM

C=CC(=O)N1CC[C@H](n2nnc3c(N4CC(C)(N(C)C)C4)nc4c(F)c(-c5cccc(C)c5Cl)c(C(F)(F)F)cc4c32)C[C@H]1CC#N (single isomer, unassigned) [Example 235a]
IC50 (KRAS G12C): ≤ 100 nM
IC50 [1]: ≤ 100 nM

C=CC(=O)N1CC[C@H](n2nnc3c(N4CC(C)(N(C)C)C4)nc4c(F)c(-c5cccc(Cl)c5C)c(C(F)(F)F)cc4c32)C[C@H]1CC#N (single isomer, unassigned) [Example 238a]
IC50 (KRAS G12C): ≤ 100 nM
IC50 [1]: ≤ 100 nM

CC#CC(=O)N1CC[C@H](n2nnc3c(OC[C@@H]4CCCN4C)nc4c(F)c(-c5cccc(C)c5Cl)c(CCC#N)cc4c32)C[C@H]1CC#N (single isomer, unassigned) [Example 242a]
IC50 (KRAS G12C): ≤ 100 nM
IC50 [1]: ≤ 100 nM

CC#CC(=O)N1CC[C@H](n2nnc3c(N4CC(C)(N(C)C)C4)nc4c(F)c(-c5cccc(Cl)c5OC)c(C(F)(F)F)cc4c32)C[C@H]1CC#N (single isomer, unassigned) [Example 243b]
IC50 (KRAS G12C): ≤ 100 nM
IC50 [1]: ≤ 100 nM

CC#CC(=O)N1CC[C@H](n2nnc3c(N4CC(C)(N(C)C)C4)nc4c(F)c(-c5cccc(C)c5OC)c(C(F)(F)F)cc4c32)C[C@H]1CC#N (single isomer, unassigned) [Example 245a]
IC50 (KRAS G12C): ≤ 100 nM
IC50 [1]: ≤ 100 nM

C=CC(=O)N1CC[C@H](n2cnc3c(N4CC(N(C)C)C4)nc4c(F)c(-c5c(C)c(Cl)cc6[nH]ncc56)c(Cl)cc4c32)C[C@H]1CC#N (single isomer, unassigned) [Example 267a]
IC50 (KRAS G12C): ≤ 100 nM
IC50 [1]: ≤ 100 nM

CC#CC(=O)N1CC[C@H](n2nnc3c(OC[C@@H]4CCCN4C)nc4c(Cl)c(-c5ccc(F)c6cccnc56)c(Cl)cc4c32)C[C@H]1CC#N (single isomer, unassigned) [Example 270a]
IC50 (KRAS G12C): ≤ 100 nM
IC50 [1]: ≤ 100 nM

C=CC(=O)N1CC[C@H](n2nnc3c(N4CC(N(C)C)C4)nc4c(Cl)c(-c5ccc(F)c6cccnc56)c(Cl)cc4c32)C[C@H]1CC#N (single isomer, unassigned) [Example 271a]
IC50 (KRAS G12C): ≤ 100 nM
IC50 [1]: ≤ 100 nM
